In ChEMBL document CHEMBL1201862, “PubChem BioAssay data set” (2004):
Calls of active or inactive are those of the source.

Columns and labels:
ORF 73 = biological target: T1, ORF 73 (Human herpesvirus 8, UniProt O40947); experiment: KSHV LANA DNA-binding disruption – biochemical, fluorescence polarization, cherry-picked samples, dose response (AID 504725); set-up: species or system Human gammaherpesvirus 8;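 also: fluorescence polarization of a labeled DNA duplex reporting LANA DNA binding; potency is for inhibitors that block LANA binding to the DNA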
T1 sequence (O40947 whole entry): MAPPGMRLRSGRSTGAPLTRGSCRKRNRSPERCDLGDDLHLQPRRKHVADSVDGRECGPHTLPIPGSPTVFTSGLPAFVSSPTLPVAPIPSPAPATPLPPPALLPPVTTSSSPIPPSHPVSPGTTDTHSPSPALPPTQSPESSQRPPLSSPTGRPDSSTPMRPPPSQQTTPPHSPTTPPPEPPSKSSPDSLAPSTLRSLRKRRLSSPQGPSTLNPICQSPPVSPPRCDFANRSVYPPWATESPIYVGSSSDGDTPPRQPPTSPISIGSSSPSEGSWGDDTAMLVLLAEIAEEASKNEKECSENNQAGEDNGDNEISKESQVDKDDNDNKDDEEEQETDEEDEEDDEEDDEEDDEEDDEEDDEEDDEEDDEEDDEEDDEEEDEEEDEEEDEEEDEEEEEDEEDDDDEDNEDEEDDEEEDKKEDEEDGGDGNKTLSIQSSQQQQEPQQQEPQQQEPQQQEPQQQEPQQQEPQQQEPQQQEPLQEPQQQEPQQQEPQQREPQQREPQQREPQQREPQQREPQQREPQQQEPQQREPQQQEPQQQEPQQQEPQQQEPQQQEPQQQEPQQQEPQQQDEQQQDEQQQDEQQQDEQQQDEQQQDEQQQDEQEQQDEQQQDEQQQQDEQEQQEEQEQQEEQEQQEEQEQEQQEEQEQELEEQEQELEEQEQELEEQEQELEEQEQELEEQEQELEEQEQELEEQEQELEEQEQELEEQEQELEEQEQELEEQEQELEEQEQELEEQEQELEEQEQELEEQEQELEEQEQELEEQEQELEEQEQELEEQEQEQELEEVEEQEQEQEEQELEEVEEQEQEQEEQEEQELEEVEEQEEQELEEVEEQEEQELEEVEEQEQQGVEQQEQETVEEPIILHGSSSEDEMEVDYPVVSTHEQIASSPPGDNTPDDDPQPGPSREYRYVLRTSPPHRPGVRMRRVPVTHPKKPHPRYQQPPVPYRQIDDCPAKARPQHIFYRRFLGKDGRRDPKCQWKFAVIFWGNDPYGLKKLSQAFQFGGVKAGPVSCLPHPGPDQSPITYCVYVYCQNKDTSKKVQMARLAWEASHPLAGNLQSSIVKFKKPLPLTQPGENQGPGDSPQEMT

[1] = biological target: Bifunctional protein GlmU (Mycobacterium tuberculosis, UniProt P9WMN3); experiment: Inhibitors of Mycobacterial Glucosamine-1-phosphate acetyl transferase (GlmU). Secondary screen.; set-up: species or system Mycobacterium tuberculosis H37Rv
Chain of Bifunctional protein GlmU (P9WMN3 whole entry): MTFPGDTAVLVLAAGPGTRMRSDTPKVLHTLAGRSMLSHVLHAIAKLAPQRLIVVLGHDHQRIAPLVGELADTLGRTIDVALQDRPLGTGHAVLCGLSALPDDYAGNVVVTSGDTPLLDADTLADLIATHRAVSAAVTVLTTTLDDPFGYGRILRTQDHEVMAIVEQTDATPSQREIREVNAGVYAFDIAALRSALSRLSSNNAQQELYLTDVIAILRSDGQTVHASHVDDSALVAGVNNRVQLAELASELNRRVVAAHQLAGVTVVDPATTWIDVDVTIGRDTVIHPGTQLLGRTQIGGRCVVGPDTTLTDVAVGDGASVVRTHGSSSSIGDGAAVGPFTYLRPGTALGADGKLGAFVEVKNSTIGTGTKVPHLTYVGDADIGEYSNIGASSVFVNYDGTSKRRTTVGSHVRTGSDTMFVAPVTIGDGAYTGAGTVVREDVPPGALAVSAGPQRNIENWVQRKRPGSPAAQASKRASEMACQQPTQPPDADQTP

[2] = biological target: T2, Zinc finger protein mex-5 (Caenorhabditis elegans, UniProt Q9XUB2); experiment: potency of MEX-5 RNA-binding blockers – biochemical, C. elegans, fluorescence polarization, dose response (AID 1960)
T2 sequence (Q9XUB2 whole entry): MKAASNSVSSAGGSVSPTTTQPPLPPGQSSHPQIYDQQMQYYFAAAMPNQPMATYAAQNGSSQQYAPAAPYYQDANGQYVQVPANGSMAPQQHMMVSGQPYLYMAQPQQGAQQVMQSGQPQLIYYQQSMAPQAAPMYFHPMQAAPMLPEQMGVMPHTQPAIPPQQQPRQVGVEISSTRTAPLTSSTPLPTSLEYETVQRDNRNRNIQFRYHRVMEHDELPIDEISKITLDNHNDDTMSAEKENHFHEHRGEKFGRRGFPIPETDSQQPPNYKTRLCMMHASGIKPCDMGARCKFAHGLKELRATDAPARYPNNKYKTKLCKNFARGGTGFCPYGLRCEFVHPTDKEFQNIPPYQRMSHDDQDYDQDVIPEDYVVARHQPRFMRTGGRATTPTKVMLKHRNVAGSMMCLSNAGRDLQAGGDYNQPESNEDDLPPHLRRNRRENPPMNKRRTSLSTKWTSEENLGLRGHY

[3] = biological target: T3, Tyrosine-protein phosphatase non-receptor type 7 (Homo sapiens, UniProt P35236); experiment: inhibition of hematopoietic tyrosine phosphatase HePTP – biochemical, set 2, SAR follow-up (AID 449736); format: functional
T3 sequence (P35236 whole entry): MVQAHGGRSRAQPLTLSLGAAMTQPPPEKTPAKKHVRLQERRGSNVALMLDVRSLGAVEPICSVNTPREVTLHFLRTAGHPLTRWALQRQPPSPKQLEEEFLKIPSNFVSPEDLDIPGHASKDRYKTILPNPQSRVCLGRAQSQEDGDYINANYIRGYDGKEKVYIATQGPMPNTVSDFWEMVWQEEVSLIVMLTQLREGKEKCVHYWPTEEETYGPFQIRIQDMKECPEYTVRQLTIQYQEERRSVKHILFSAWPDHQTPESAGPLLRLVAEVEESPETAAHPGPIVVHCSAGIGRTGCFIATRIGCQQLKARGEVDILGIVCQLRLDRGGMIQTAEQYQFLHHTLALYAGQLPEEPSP

[4] = biological target: T4, High affinity choline transporter 1 (Homo sapiens, UniProt Q9GZV3); experiment: human choline transporter blockers, potency – cell-based, 5-point CRC, membrane potential dye, dose response (AID 504840); format: functional
T4 sequence (Q9GZV3 whole entry): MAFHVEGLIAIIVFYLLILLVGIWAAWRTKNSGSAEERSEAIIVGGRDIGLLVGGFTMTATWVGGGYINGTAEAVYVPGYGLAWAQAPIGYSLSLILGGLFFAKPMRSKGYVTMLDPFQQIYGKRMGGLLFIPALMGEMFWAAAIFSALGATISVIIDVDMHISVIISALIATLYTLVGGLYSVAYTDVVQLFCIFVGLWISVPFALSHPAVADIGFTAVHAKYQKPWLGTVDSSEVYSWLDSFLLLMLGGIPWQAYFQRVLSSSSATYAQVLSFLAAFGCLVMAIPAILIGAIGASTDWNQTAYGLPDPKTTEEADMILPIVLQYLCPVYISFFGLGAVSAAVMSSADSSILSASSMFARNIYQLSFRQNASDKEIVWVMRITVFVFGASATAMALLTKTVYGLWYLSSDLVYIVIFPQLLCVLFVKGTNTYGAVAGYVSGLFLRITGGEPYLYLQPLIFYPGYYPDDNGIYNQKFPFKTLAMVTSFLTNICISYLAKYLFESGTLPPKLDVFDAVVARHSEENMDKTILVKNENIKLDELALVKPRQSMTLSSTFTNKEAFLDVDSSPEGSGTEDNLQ

## Nc1ccc2nc3c(O)nc(S)nc3nc2c1
ORF 73
  AC50: 3.62 µM (active)
[1]
  IC50: 14 µM (active)
[2]
  EC50: 1.67 µM (inconclusive)

## O=C(O)COc1ccc(/C=N/NC(=O)c2ccc(-c3csc(Nc4ccc(Cl)cc4)n3)cc2)cc1
[3]
  IC50: 193 nM (active)

## CC(/C=C1\SC(=S)N(NS(=O)(=O)c2ccccc2)C1=O)=C\c1ccccc1
[4]
  IC50: 9.12 µM (active)
